Assays:
[1] = test system: proton-gated currents in cortical neurons; type: cell-based, mouse; details: conditioning pH 7.2
ASIC1a = details: cited from earlier work; for effect on steady-state desensitization of mouse ASIC1a: ref Sherwood and Askwith, 2008
ASIC1a:F352L = test: Steady-state desensitization of mutant ASIC1a:F352L; type: cell-based, mouse; details: peptide alone; conditioning pH 6.65; n = 3
mouse ASIC1a = biological target: T1, mouse ASIC1a (Mus musculus, UniProt Q6NXK8); test: Competition of Big Dynorphin with PcTx1 for ASIC1a modulation, Xenopus oocytes; type: cell-based; details: conditioning pH 7.2; PcTx1 0.2 µM or Big Dynorphin 1 µM alone
T1 sequence (Q6NXK8 1-526): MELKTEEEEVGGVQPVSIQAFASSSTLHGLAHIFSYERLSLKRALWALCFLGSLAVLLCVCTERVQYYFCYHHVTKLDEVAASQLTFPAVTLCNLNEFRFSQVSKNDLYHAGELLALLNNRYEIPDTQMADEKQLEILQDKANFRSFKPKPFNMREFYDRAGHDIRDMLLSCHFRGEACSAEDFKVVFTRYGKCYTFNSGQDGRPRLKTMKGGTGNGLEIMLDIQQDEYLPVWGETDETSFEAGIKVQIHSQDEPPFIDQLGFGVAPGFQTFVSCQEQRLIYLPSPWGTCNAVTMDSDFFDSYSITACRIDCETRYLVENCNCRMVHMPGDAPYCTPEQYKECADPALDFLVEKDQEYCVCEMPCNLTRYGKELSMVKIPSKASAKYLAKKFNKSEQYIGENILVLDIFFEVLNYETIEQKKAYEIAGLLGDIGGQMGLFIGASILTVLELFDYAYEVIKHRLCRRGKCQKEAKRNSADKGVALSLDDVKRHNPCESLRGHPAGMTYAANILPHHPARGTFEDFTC

C=CCN1CC[C@]23c4c5ccc(O)c4O[C@H]2C(=O)CC[C@@]3(O)[C@H]1C5 [Naloxone]
effect of antagonist alone on proton-gated current [1]: neither of which had any affect on proton-gated currents alone

FMRFamide
competition with PcTx1 (ASIC1a; ref Salinas et al., 2006): does not compete with PcTx1
effect on steady-state desensitization of mouse ASIC1a (ASIC1a): but not FMRFamide, prevented steady-state desensitization of mouse ASIC1a

FRRFamide
effect on steady-state desensitization of mouse ASIC1a (ASIC1a): prevented steady-state desensitization of mouse ASIC1a

PcTx1
effect on ASIC1a steady-state desensitization (ASIC1a; ref Escoubas et al., 2000, Chen et al., 2006a, Salinas et al., 2006): specifically binds the extracellular domain of ASIC1 to enhance the proton-sensitivity of steady-state desensitization
effect on steady-state desensitization of ASIC1a:F352L (ASIC1a:F352L): PcTx1 alone had no effect
effect on ASIC1a steady-state desensitization, peptide alone (mouse ASIC1a): steady-state desensitization induced by pH 7.2 was enhanced and acid-evoked current was reduced
